Measurements from patent US20230002377A1, “THERAPEUTIC COMBINATIONS OF DRUGS AND METHODS OF USING THEM” (HARMONY BIOSCIENCES, LLC, priority 2020, published 2023).

Assay: Plasma concentration of Formula I at midpoint time of post dosing PET scans
Type: in vivo
Conditions: male, human; for concentration at 24 h: day 14, 24 h post last dose
Description: In alternative embodiments, provided are methods comprising administering a drug in an amount sufficient to achieve a therapeutic level range of plasma concentration (optionally human plasma concentration) at a steady state, and this example describes an exemplary analytical method to determine the concentration of Formula I in human plasma using an LC-MS-MS method known to the people skilled in the art, and an exemplary bioanalysis method to determine the concentration of formula I in human EDTA plasma.
A LC-MS/MS method was developed and validated for the quantitation of Formula I in 0.250 mL of human EDTA plasma in a total of 7 runs, out of which 1 run was rejected. The method utilized stable labeled Formula I as an internal standard. After the addition of the internal standard (equivalent to 285.4 ng/mL in human EDTA plasma) and 0.250 mL of each quality control (QC) sample and calibration standard, 0.525 mL of methyl t-butyl ether (MTBE) was added to the 96-well sample tubes. The organic layer was removed and evaporated to dryness using a liquid-liquid extraction (LLE). The residue was reconstituted and injected into the LC-MS/MS system. Chromatographic separation was achieved through gradient elution on an Acquity UPLC, BEH Shield RP18™, 50×2.1 mm, 1.7 μm particle size column. The mobile phase contained water, acetonitrile, ammonium formate, and formic acid. Detection was accomplished using a Sciex API 4000 tandem mass spectrometer in positive ion electrospray SRM mode. The standard curves, which ranged from 1.00 to 1000 ng/mL for Formula I, were fitted to a 1/×2 weighted linear regression model. The intra-assay precisions, based on four levels of analytical QCs (low, mid, GM, and high), were within 4.2% CV and inter-assay precisions were within 7.2% CV for the analyte. The assay accuracy, expressed as % DEV, was within 6.4% of the nominal concentration values for the analyte. […] The LLOQ response ratio, when compared to the QCO response ratio, was >, 5 in all matrix lots. The analyte was stable in human EDTA plasma for at least 24 h at room temperature, for at least 14 days at −20° C., and following at least 3 freeze-thaw cycles. The processed samples were stable for 72 hours (h) at room temperature.
Striatal receptor occupancy at dopamine transporters (DAT) and serotonin transporters (SERT) with plasma concentrations of Formula I at the midpoint time of the post dosing PET (positron emission tomography) scans (T=4 and 24) after once-a-day multiple doses of 3-60 mg and 10-60 mg for SERT and DAT healthy male cohorts, respectively (Tables below, RO stands for receptor occupancy). Post dosing PET scans were conducted at day 10 (4 h post last dose) and day 14 (24 h post last dose) assuming steady state conditions, using the specific DAT and SERT tracers ^11C-PE2I and ^11C-MADAM, respectively. For 45 mg and 60 mg cohorts, there was titration by administration of 30 mg for 3 days and then from day 4 the specified dose. Representative reports on using these two tracers are Leamed-Coughlin S M et al, Biol Psychiatry. 2003, 54(8):800-5; Jucaite A et al, Eur J Nucl Med Mol Imaging. 2006, 33(6):657-68; and Lundberg J et al, Int J Neuropsychopharmacol. 2007, 10(6):777-85.

In the case of `Clc1ccc(C2CNCc3cc(-c4ccc5ncnn5c4)ccc32)cc1Cl` (centres unmarked) [Formula I, 7-([1,2,4]triazolo[1,5-a]pyridin-6-yl)-4-(3,4-dichlorophenyl)-1,2,3,4-tetrahydroisoquinoline], the concentration at 4 h (3 mg, SERT cohort, 3 mg once a day, day 10, 4 h post dose) is reported as 68 ng/mL, the concentration at 24 h (3 mg, SERT cohort, 3 mg once a day) is reported as 52 ng/mL and the concentration at 4 h (10 mg, DAT cohort, 10 mg once a day, day 10, 4 h post dose) is reported as 204 ng/mL. The concentration at 24 h (10 mg, DAT cohort, 10 mg once a day) was 141 ng/mL, the concentration at 4 h (10 mg, SERT cohort, 10 mg once a day, day 10, 4 h post dose) was 201 ng/mL and the concentration at 24 h (10 mg, SERT cohort, 10 mg once a day) was 127 ng/mL. The concentration at 4 h (30 mg, SERT cohort, 30 mg once a day, day 10, 4 h post dose) was 691 ng/mL, the concentration at 24 h (30 mg, SERT cohort, 30 mg once a day) was 668 ng/mL and the concentration at 4 h (45 mg, DAT cohort, 45 mg once a day (30 mg for 3 days first), day 10, 4 h post dose) was 809 ng/mL. It also gave a concentration at 24 h (45 mg, DAT cohort, 45 mg once a day (30 mg for 3 days first)) of 647 ng/mL, a concentration at 4 h (45 mg, SERT cohort, 45 mg once a day (30 mg for 3 days first), day 10, 4 h post dose) of 1160 ng/mL and a concentration at 24 h (45 mg, SERT cohort, 45 mg once a day (30 mg for 3 days first)) of 940 ng/mL. It also gave a concentration at 4 h (60 mg, DAT cohort, 60 mg once a day (30 mg for 3 days first), day 10 (subject 77: day 11), 4 h post dose) of 1340 ng/mL and a concentration at 24 h (60 mg, DAT cohort, 60 mg once a day (30 mg for 3 days first)) of 920 ng/mL.
